Results on one molecule are retold here after article PMC11812216, “Multifunctional hyaluronic acid-based biomimetic/pH-responsive hybrid nanostructured lipid carriers for treating bacterial sepsis” (Journal of Biomedical Science, 2025).

SMILES strings stand for the structures.

The target in assay [1] is T1, Recombinant human TLR2 (RPA663Hu03) (Homo sapiens, UniProt O60603).
T1 construct: commercial recombinant protein (Biocom Africa), His-tag labelled with Red-tris-NTA
In words: microscale thermophoresis, His-tag-labelled TLR2. In kind it is binding. The text has this: microscale thermophoresis, His-tag-labelled TLR2 on Recombinant human TLR2 (RPA663Hu03)

For assay [2], the target named is T2, Recombinant human TLR4 (Active ab233665) (Homo sapiens, UniProt O00206).
T2 construct: commercial recombinant protein (Abcam), labelled with Blue-NHS dye; no MD-2 mentioned
T2 sequence (O00206 24-631 limits assumed): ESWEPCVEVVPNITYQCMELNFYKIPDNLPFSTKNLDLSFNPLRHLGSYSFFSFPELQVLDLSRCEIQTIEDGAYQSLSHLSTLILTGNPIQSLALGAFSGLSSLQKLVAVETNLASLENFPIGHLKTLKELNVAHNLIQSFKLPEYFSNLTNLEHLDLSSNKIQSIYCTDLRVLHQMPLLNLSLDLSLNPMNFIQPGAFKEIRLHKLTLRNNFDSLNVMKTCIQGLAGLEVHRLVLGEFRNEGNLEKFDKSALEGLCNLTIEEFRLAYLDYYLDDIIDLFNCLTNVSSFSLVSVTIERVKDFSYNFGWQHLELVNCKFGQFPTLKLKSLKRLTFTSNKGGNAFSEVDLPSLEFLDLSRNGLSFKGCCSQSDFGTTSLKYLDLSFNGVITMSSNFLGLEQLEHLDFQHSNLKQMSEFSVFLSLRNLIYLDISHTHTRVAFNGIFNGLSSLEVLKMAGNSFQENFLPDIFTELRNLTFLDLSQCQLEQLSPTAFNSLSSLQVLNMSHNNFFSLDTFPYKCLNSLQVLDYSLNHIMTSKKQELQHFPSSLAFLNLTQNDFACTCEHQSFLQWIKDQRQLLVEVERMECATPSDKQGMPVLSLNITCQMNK
The assay can be described thus: microscale thermophoresis, Blue-NHS-labelled TLR4. In kind it is binding. The text has this: microscale thermophoresis, Blue-NHS-labelled TLR4 on Recombinant human TLR4 (Active ab233665)

T1 sequence (O60603 21-588 limits assumed): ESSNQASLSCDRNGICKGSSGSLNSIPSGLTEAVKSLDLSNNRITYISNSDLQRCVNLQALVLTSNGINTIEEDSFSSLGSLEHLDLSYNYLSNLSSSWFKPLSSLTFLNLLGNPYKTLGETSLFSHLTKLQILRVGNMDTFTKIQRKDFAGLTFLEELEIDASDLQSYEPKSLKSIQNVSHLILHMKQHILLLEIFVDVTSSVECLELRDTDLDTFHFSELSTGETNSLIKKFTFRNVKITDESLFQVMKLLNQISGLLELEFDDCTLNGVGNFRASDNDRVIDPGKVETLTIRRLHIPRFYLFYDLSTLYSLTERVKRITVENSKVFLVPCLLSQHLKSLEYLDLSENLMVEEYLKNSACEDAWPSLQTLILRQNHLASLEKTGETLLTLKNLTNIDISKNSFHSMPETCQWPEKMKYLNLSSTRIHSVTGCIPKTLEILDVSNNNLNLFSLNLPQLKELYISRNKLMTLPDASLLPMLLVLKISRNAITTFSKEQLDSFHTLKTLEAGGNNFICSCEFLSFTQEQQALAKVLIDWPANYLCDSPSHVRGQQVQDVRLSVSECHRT

For `NCCCC[C@H](N)C(=O)O` [Lys], the dissociation constant (Kd) in assay [1] is 2.78 ± 0.74 µM; in assay [2] it was 43.5 ± 2.35 µM.
